Each structure is given as a SMILES string.

T1 sequence (P06730 28-217): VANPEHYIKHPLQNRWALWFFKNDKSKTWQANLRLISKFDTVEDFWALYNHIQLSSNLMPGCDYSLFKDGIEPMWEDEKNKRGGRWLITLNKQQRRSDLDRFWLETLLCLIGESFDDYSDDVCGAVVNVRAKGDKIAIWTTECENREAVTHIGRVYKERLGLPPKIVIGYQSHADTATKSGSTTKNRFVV

This test concerns the target T1, Human eIF4E (Homo sapiens, UniProt P06730).
T1 construct: Human eIF4E (aa 28-217) with a C-terminal His-tag; made in house
Nature of the test: Human eIF4E/4G2 binding assay (TR-FRET). The following applies: purified human eIF4E (aa 28-217), biotin labeled 4G2 peptide, 4 hours preincubation at room temperature. How it is done:
Example 3. Compound Testing in Human eIF4E/4G2 Binding Assay
Human eIF4E (aa 28-217) with a C-terminal His-tag was expressed in E. coli in inclusion bodies. The protein was solubilized with 8 M urea and purified under denaturing conditions using nickel-charged HisTrap HP columns (GE Healthcare). The purified protein was then refolded by diluting in 20 mM Hepes pH 7.0, 0.5 M NaCl, 1 mM DTT, 1 mM EDTA, 0.5 M arginine plus 6 M urea, and then dialyzing overnight into the same buffer without the urea. The protein was further dialyzed into 20 mM Hepes, pH 6.5, 50 mM NaCl, 1 mM EDTA, 1 mM DTT, and concentrated using Hitrap SP sepharose FF columns (GE Healthcare). The concentrated protein was dialyzed into 20 mM Hepes, pH 7.0, 0.5 M NaCl, 5 mM DTT and 10% glycerol, and stored at -80° C. until use.
Test compounds (3.43 mM stock in DMSO) were diluted 2-fold in series in DMSO (10 concentration points). Compound solutions (1.2 µl/well) were added into black 384-well polypropylene microplates (Matrix, Thermal Scientific). Twenty-two microliters per well of Assay Buffer (50 mM NaPi, pH 6.5, 50 mM KCl, 1 mM DTT and 0.5 mg/ml gamma globulin) and eight microliters per well of 82.5 nM purified eIF4E in Assay Buffer were added. The samples were incubated at room temperature (20-23° C.) for 4 hours. Biotin labeled 4G2 peptide (Ac-Lys-Gln-Tyr-Asp-Arg-Glu-Phe-Leu-Leu-Asp-Phe-Gln-Phe-Met-Pro-Lys(Aha-Bio)-NH2, 1.75 µM stock in DMSO) was diluted to 0.14 µM in Assay Buffer (without DTT) and 5 µl/well was added. The samples were incubated at room temperature for 20 min. Five microliters per well of 6.4 nM Eu-streptavidin (Eu-SA, Perkin Elmer) and 80 nM Allophycocyanin (APC)-anti His antibody (Columbia Biosciences) in Assay Buffer (without DTT) were then added and the samples were incubated at room temperature for 20 min.
Assay signals were monitored by reading excitation at 340 nm and emission fluorescence at 615 nm and 665 nm on an Envision reader (Perkin Elmer). Normalized TR-FRET (time-resolved fluorescence resonance energy transfer) assay signal (Rn) was calculated by the formula: Rn = [(A-Ba-C x D)/(D-Bd)] x (Dc- Bd) • Where A is the fluorescence intensity of the sample at 665 nm, • D is the fluorescence intensity of the sample at 615 nm, • Ba and Bd are plate backgrounds at 665 nm and 615 nm, respectively, • Dc is the fluorescence intensity of 0.78 nM Eu-SA in the assay buffer at 615 nm • The cross-talk factor (C) is determined by the following formula: • C = (Ac- Ba)/(Dc-Bd) • Where Ac is the fluorescence intensity of 0.78 nM Eu-SA in the assay buffer at 665 nm.
IC50 values were calculated using xLFit program (IDBS). Table 2 below lists […] of some compounds, wherein A represents IC50 ≤ 0.5 µM; B represents 0.5 uM < IC50 ≤ 1 µM; and C represents IC50 > 1 µM.
For orientation: In TR-FRET formats the signal depends on donor and acceptor labels being close together.
With `CC(C)Cc1sc(Nc2ncc(-c3cccs3)cc2C(=O)O)nc1-c1ccsc1` [I-127], the half-maximal inhibitory concentration (IC50) is ≤ 500 nM. In the case of `COCCOc1ccc(-c2nc(Nc3ccc(-c4cccs4)cc3C(=O)O)sc2CC(C)C)cc1F` [I-64], the IC50 is ≤ 500 nM. In the case of `COc1cc(-c2nc(Nc3ncc(-c4cccs4)cc3C(=O)O)sc2CCC(C)C)ccc1F` [I-82], the IC50 was ≤ 500 nM. Regarding `CNCCOc1ccc(-c2nc(Nc3ncc(-c4cccs4)cc3C(=O)O)sc2CC(C)C)cc1Cl` [I-3, 2-((4-(3-chloro-4-(2-(methylamino)ethoxy)phenyl)-5-isobutylthiazol-2-yl)amino)-5-(thiophen-2-yl)nicotinic acid], the IC50 was > 1000 nM. In the case of `COc1c(Cl)cc(-c2nc(Nc3ncc(-c4cccs4)cc3C(=O)O)sc2CC(C)C)cc1Cl` [I-4], the IC50 is ≤ 500 nM. The same measure for `COc1ccc(-c2nc(Nc3ncc(-c4cccs4)cc3C(=O)O)sc2C2CC2)c(F)c1` [I-27]: 500 to 1000 nM; for `CCCc1sc(Nc2ncc(-c3cccs3)cc2C(=O)O)nc1-c1ccc(OCCOC)c(F)c1` [I-49]: 500 to 1000 nM. Molecule `COc1cc(-c2nc(Nc3ncc(-c4cccs4)cc3C(=O)O)sc2CC(C)C)ccc1F` [I-73] returned an IC50 of 500 to 1000 nM.

For `COCCOc1ccc(-c2nc(Nc3cc(-c4ccccc4)sc3C(=O)O)sc2CC(C)C)cc1` [I-23], the IC50 was 500 to 1000 nM.

Turning to `COCCOc1ccc(-c2nc(Nc3ncc(-c4cccs4)cc3C(=O)O)sc2C2CC2)cc1` [I-22], the IC50 lay within 500 to 1000 nM. Regarding `COc1ccc(-c2nc(Nc3ncc(-c4cccs4)cc3C(=O)O)sc2CCC(C)C)cc1F` [I-69], the IC50 was ≤ 500 nM. On to `CCOc1cc(-c2nc(Nc3ncc(-c4cccs4)cc3C(=O)O)sc2CC(C)(C)C)ccc1F` [I-92], for which the IC50 was ≤ 500 nM. The result for `COCCOc1ccc(-c2nc(Nc3cc(-c4ccccc4)sc3C(=O)O)sc2C2CC2)cc1` [I-20] reads 500 to 1000 nM; that for `COCCOc1ccc(-c2nc(Nc3ncc(-c4cccs4)cc3C(=O)O)sc2CC(C)(C)C)cc1F` [I-65], ≤ 500 nM.

What is called IC50 is the concentration needed to halve the response being measured. Low values mean inhibition by little substance, high ones a need for much substance.

The record behind these values is US20230150997A1, “EIF4E INHIBITORS AND USES THEREOF” (PIC Therapeutics, Inc., priority 2021, published 2023).
